The source of these data is patent publication US10815219B2, “2,4-diaminoquinazoline derivatives for inhibiting endoplasmic reticulum (ER) stress” (The Board of Regents of the University of Oklahoma, priority 2017, dated 2020).

Like-named read-outs stand apart in the source and are kept apart here.

The experiment has as its system INS-1 cells. Briefly: INS-1 cell survival after Tm treatment (CellTiter-Glo, intracellular ATP). The following applies: for Maximum activity: % rescue from Tm (0.1 μg/mL)-induced reduction of cell viability, Tm alone 0%, DMSO 100%. It is filed as cell-based, rat. The protocol: A structure-activity-relationship (SAR) study was thus conducted to improve the weak potency of lead compound 5a. Newly synthesized or commercially available compounds were tested for their β-cell-protective activity against ER stress in rat INS-1 β-cells. […] Maximum activity value in the tables is reported as % rescue from Tm (0.1 μg/mL)-induced reduction of cell viability. The values for Tm treatment alone and control (DMSO, without Tm) treatment are designated as 0% and 100%, respectively in all tables. EC50 values (the concentrations that reach half-maximal activity) for INS-1 cell viability were calculated with GraphPad Prism from the data of ten 2-fold serial titration points in all tables. All experiments were performed in triplicate in all tables.
INS-1 cells or βTC6 cells were seeded at 3×10^3 cells/well in a 384-well plate and treated with compounds at the indicated concentrations. After 3 d treatment, the medium was aspirated and 20 μL/well of CellTiter-Glo reagent (Promega, WI, USA) was added for the detection of intracellular ATP levels. Cell viability was measured with an EnVision multilabel plate reader (PerkinElmer, MA, USA).
A general note: Cellular ATP, detected with luciferase, serves as a proxy for viable cell number.

The mark [1] stands for this setting: INS-1 cell viability, Tm 0.1 μg/mL, 72 h, ten 2-fold serial titration points, Table 2, read-out: EC50.
The mark [2] stands for this setting: INS-1 cell viability in presence of Tm, read-out: EC50.
[3] abbreviates: INS-1 cell viability, Tm 0.1 μg/mL, 72 h, ten 2-fold serial titration points, Table 1, read-out: EC50.
The mark [4] stands for this setting: INS-1 cell viability, Tm 0.1 μg/mL, 72 h, ten 2-fold serial titration points, Table 3, read-out: EC50.

By EC50 is commonly meant the concentration at which the effect is half-maximal. For `OCC1CCCCN1c1nc(NCCc2ccccc2Cl)c2ccccc2n1` (racemic) [Compound 6l], the Maximum activity (72 h, Table 2) came to 51.4%. Besides, under setting [1], the EC50 came to 470 ± 450 nM.

In turn, `OCC1CCCN1c1nc(NCCc2ccccc2)c2ccccc2n1` (stereo not drawn) [Compound 5a, (1-(4-(phenethylamino)quinazolin-2-yl)pyrrolidin-2-yl)methanol] displayed a Maximum activity (72 h, Table 1) of 54.4%. The EC50 by setting is: under setting [2], roughly 500 nM; (Rattus norvegicus, INS1, 72 h, INS-1 cell viability, Tm 0.1 μg/mL, 72 h, ten 2-fold serial titration points, Table 1, read-out: EC50) 480 ± 190 nM; (Rattus norvegicus, INS1, running text, INS-1 cell viability in presence of Tm, read-out: EC50) 480 ± 190 nM.

`OCC1CCCN1c1nc(NCCc2ccc(F)cc2)c2ccccc2n1` (stereo not drawn) [Compound 5b]: the Maximum activity (72 h, Table 1) is reported as 56.2%. Further, the EC50 under setting [3] worked out at 2130 ± 410 nM.

In the case of `OCC1CCCN1c1nc(NCCc2ccc(Cl)cc2)c2ccccc2n1` (stereo not drawn) [Compound 5c], the Maximum activity (72 h, Table 1) is 57.3%. The EC50 under setting [2] is roughly 500 nM and the EC50 under setting [3] is 510 ± 90 nM.

As for `OCC1CCCN1c1nc(NCCc2ccc(Br)cc2)c2ccccc2n1` (stereo not drawn) [Compound 5d], the Maximum activity (72 h, Table 1) is reported as 44.1%. The EC50 is, setting by setting: under setting [2], roughly 500 nM; under setting [3], 650 ± 160 nM.

For the setting “72 h, Table 1”, `Cc1ccc(CCNc2nc(N3CCCC3CO)nc3ccccc23)cc1` (stereo not drawn) [Compound 5e] had a Maximum activity of 34.2%. Also, the EC50 by setting is: under setting [2], roughly 500 nM; under setting [3], 660 ± 210 nM.

The molecule `OCC1CCCN1c1nc(NCCc2cccc(F)c2)c2ccccc2n1` (stereo not drawn) [Compound 5f] displayed a Maximum activity (72 h, Table 1) of 51.3%. Besides, the EC50 under setting [3] worked out at 1150 ± 190 nM.

In turn, `OCC1CCCN1c1nc(NCCc2cccc(Cl)c2)c2ccccc2n1` (stereo not drawn) [Compound 5g] yielded a Maximum activity (72 h, Table 1) of 51.5%. The EC50 under setting [3] stood at 1050 ± 180 nM.

As to `OCC1CCCN1c1nc(NCCc2cccc(Br)c2)c2ccccc2n1` (stereo not drawn) [Compound 5h], under “72 h, Table 1”, the Maximum activity is given as 53.2%. For the same molecule, the EC50 under setting [3] was determined as 780 ± 240 nM.

As for `COc1cccc(CCNc2nc(N3CCCC3CO)nc3ccccc23)c1` (stereo not drawn) [Compound 5i], the Maximum activity (72 h, Table 1) is 54.9%. The EC50 under setting [3] came out at 1510 ± 130 nM.

Turning to `OCC1CCCN1c1nc(NCCc2ccccc2F)c2ccccc2n1` (stereo not drawn) [Compound 5j], for the setting “72 h, Table 1”, the Maximum activity was found to be 52.5%. For the same molecule, the EC50 under setting [3] came to 1700 ± 230 nM.

On to `OCC1CCCN1c1nc(NCCc2ccccc2Cl)c2ccccc2n1` (stereo not drawn) [Compound 5k], for which the Maximum activity (72 h, Table 1) was 50.6%. Under setting [3], the EC50 came to 1440 ± 270 nM.

For `OC[C@@H]1CCCN1c1nc(NCCc2ccccc2Br)c2ccccc2n1` [Compound 5l], the Maximum activity (72 h, Table 1) is reported as 39.0%. Further, under setting [3], the EC50 came to 1880 ± 320 nM.

In the case of `COc1ccccc1CCNc1nc(N2CCCC2CO)nc2ccccc12` (stereo not drawn) [Compound 5m], the Maximum activity (72 h, Table 1) was 56.6%. Under setting [3], the EC50 amounted to 3560 ± 150 nM.

The molecule `OCC1CCCCN1c1nc(NCCc2ccccc2)c2ccccc2n1` (stereo not drawn) [Compound 6a] displayed a Maximum activity (72 h, Table 2) of 55.7%. Moreover, the EC50 under setting [1] stood at 360 ± 210 nM.

Take `OCC1CCCCN1c1nc(NCCc2ccc(F)cc2)c2ccccc2n1` (stereo not drawn) [Compound 6b]: where the note is “6-series versus 5-series counterpart”, the “EC50 improvement over 2-(hydroxymethyl)pyrrolidin-1-yl counterpart” value is on record as roughly 7 fold. Where the note is “72 h, Table 2”, this molecule displayed a Maximum activity of 47.5%. Under setting [1], the EC50 amounted to 310 ± 260 nM.

Consider `OCC1CCCCN1c1nc(NCCc2ccc(Cl)cc2)c2ccccc2n1` (stereo not drawn) [Compound 6c], for which the Maximum activity (72 h, Table 2) was 57.6%. Under setting [1], the EC50 came out at 170 ± 50 nM.

For the molecule `OCC1CCCCN1c1nc(NCCc2ccc(Br)cc2)c2ccccc2n1` (stereo not drawn) [Compound 6d], the Maximum activity (72 h, Table 2) was determined as 52.8%. For the same molecule, under setting [1], the EC50 was found to be 340 ± 90 nM.

For the molecule `Cc1ccc(CCNc2nc(N3CCCCC3CO)nc3ccccc23)cc1` (stereo not drawn) [Compound 6e], the Maximum activity (72 h, Table 2) was 33.6%. Also, under setting [1], the EC50 was 140 ± 40 nM.

In the case of `COc1ccc(CCNc2nc(N3CCCCC3CO)nc3ccccc23)cc1` (stereo not drawn) [Compound 6f], the Maximum activity (72 h, Table 2) is recorded as 58.6%. Moreover, under setting [1], the EC50 was 310 ± 120 nM.

For the setting “72 h, Table 2”, `OCC1CCCCN1c1nc(NCCc2cccc(F)c2)c2ccccc2n1` (stereo not drawn) [Compound 6g] yielded a Maximum activity of 57.3%. For the same molecule, the EC50 under setting [1] was determined as 1880 ± 180 nM.

With `OCC1CCCCN1c1nc(NCCc2cccc(Cl)c2)c2ccccc2n1` (stereo not drawn) [Compound 6h], the Maximum activity (72 h, Table 2) was found to be 46.2%. Also, the EC50 under setting [1] stood at 790 ± 300 nM.

In the case of `OCC1CCCCN1c1nc(NCCc2cccc(Br)c2)c2ccccc2n1` (stereo not drawn) [Compound 6i], where the note is “72 h, Table 2”, the Maximum activity worked out at 51.7%. Moreover, under setting [1], the EC50 came to 770 ± 400 nM.

On to `COc1cccc(CCNc2nc(N3CCCCC3CO)nc3ccccc23)c1` (stereo not drawn) [Compound 6j], for which, where the note is “72 h, Table 2”, the Maximum activity is recorded as 69.2%. The EC50 result is, setting by setting: (INS-1 cell viability in presence of Tm) “increased”; under setting [1], 2590 ± 310 nM.

As for `OCC1CCCCN1c1nc(NCCc2ccccc2F)c2ccccc2n1` (stereo not drawn) [Compound 6k], the Maximum activity (72 h, Table 2) came to 60.3%. Also, the EC50 under setting [1] is 1460 ± 460 nM.

As for `OCC1CCCCN1c1nc(NCCc2ccccc2Br)c2ccccc2n1` (stereo not drawn) [Compound 6m], the Maximum activity (72 h, Table 2) amounted to 44.2%. The EC50 under setting [1] came out at 1410 ± 310 nM.

Turning to `COc1ccccc1CCNc1nc(N2CCCCC2CO)nc2ccccc12` (stereo not drawn) [Compound 6n], the Maximum activity (72 h, Table 2) came out at 46.9%. In addition, the EC50 under setting [1] stood at 1600 ± 150 nM.

`COc1ccc(CNc2nc(N3CCCC3CO)nc3ccccc23)cc1` (stereo not drawn) [Compound 8c]: the Maximum activity (72 h, Table 3) turned out to be 57.2%. Moreover, the EC50 under setting [4] came out at 4050 ± 130 nM.

In turn, `COc1ccc(CNc2nc(N3CCCC3CO)nc3ccccc23)cc1OC` (stereo not drawn) [Compound 8d] came in with a Maximum activity (72 h, Table 3) of 44.9%. For the same molecule, the EC50 under setting [4] is 1850 ± 390 nM.

On to `OCC1CCCCN1c1nc(NCc2ccccc2)c2ccccc2n1` (stereo not drawn) [Compound 9a], for which the Maximum activity (72 h, Table 3) is on record as 56.4%. For the same molecule, the EC50 under setting [4] was 230 ± 70 nM.

For the setting “72 h, Table 3”, `OCC1CCCCN1c1nc(NCc2ccc(Cl)cc2)c2ccccc2n1` (stereo not drawn) [Compound 9b] came in with a Maximum activity of 54.7%. Besides, the EC50 under setting [4] was 210 ± 80 nM.

For `COc1ccc(CNc2nc(N3CCCCC3CO)nc3ccccc23)cc1OC` (stereo not drawn) [Compound 9d], the Maximum activity (72 h, Table 3) was 69.4%. Besides, under setting [4], the EC50 amounted to 3640 ± 380 nM.

On to `Nc1nc(Sc2cc(-n3cccc3)c(Cl)cc2[N+](=O)[O-])n[nH]1` [RH01687, reference compound], for which the “concentration exhibiting the maximum protective activity” value (INS-1 cells, Tm 0.1 μg/mL, 72 h, based on dose-dependent curves) was determined as 30 µM.
